Target: T1, hP2X3 (Homo sapiens, UniProt P56373)
T1 construct: host or cells: 1321N1 cells
T1 sequence (P56373 1-397): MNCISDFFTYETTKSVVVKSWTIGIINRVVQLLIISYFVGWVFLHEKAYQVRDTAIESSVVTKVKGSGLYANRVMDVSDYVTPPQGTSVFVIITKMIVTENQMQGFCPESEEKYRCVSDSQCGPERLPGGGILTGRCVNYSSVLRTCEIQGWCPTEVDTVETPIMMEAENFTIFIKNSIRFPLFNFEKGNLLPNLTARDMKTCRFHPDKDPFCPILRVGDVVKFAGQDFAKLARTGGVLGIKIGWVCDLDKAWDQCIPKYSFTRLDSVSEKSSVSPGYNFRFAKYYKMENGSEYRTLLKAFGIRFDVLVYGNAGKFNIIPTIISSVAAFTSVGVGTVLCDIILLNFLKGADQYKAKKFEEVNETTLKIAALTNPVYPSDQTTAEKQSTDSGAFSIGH
Experiment: FLIPR calcium flux assay, antagonistic activity against hP2X3 receptor
Type: cell-based
Details: 1321N1/hP2X3 cells, agonist α,β-meATP 500 nM
Protocol: (§1) The compounds were screened for antagonistic activity against hP2X3 and hP2X2/3 receptors (changes in calcium flux signals represent the effect of the compounds on ion channels) by an FLIPR assay.
(§2) 1321N1 cells (adherent cells) stably transfected with hP2X3 and hP2X2/3 receptors were digested, centrifuged, resuspended in a plating medium (DMEM+10% DFBS) and counted, adjusted to 2×10^5 cells/mL. The cells were seeded in a 384-well assay plate at 50 μL/well, and incubated in an incubator at 37° C. with 5% CO2 for 16-24 h. Test compounds (20 mM DMSO stock solution) that were 180 times the desired concentration were prepared with DMSO, and added to a 384-well compound plate at 500 nL/well. Then, each well was supplemented with 30 μL of FLIPR buffer (lx HBSS containing 1.26 mM Ca^2++2 mM CaCl2)+20 mM HEPES), and the mixture was shaken for 20-40 min to be mixed well. The agonist α,β-meATP (final concentration of 500 nM for hP2X3 cells and final concentration of 1000 nM for hP2X2/3 cells) that was 3 times the desired concentration was prepared with an FLIPR buffer, and added to another 384-well compound plate at 35 μL/well. The cell plate in which cells had been plated and cultured for 16-24 h was taken out, and the cell supernatant was removed by pipetting. 30 μL of dye (FLIPR® calcium 4 assay kit, diluted with an FLIPR buffer) was added to each well, and the plate was incubated for 1 h. 15 μL of the compound was added to each well containing cells (dosing using an FLIPR instrument), and after 15 min, 22.5 μL of agonist was added to each well and the fluorescent signal was detected (excitation wavelength: 470-495 nm, emission wavelength: 515-575 nm). With the difference between the peak and the trough of the signal taken as the basic data, the data of the highest concentration of the positive drug taken as the 100% inhibition rate, and the data of DMSO taken as the 0% inhibition rate, the inhibition effect curves of the compounds were fitted on the software Graphpad Prism 6 and IC50 values were calculated.

Row | SMILES | IC50 [nM]
1 | CNC(=O)c1cc(F)c(-c2nc3cc(C)cnc3n2C[C@H]2CN(C(=O)OC)CCO2)c(F)c1 [Compound 6, Methyl (S)-2-((2-(2,6-difluoro-4-(methylcarbamoyl)phenyl)-6-methyl-3H-imidazo[4,5-b]pyridin-3-yl)methyl)morpholine-4-carboxylate] | > 10000
2 | Cc1ccc2c(c1)nc(-c1c(F)cc(N3CCCC3=O)cc1Cl)n2C[C@H]1CN(C(=O)C2CC2)CCO1 [Compound 15, (S)-1-(3-chloro-4-(1-((4-(cyclopropylcarbonyl)morpholin-2-yl)methyl)-5-methyl-1H-benzo[d]imidazol-2-yl)-5-fluorophenyl)pyrrolidin-2-one] | 85.1
3 | CC(=O)N1CCO[C@@H](Cn2c(-c3c(F)cc(N4CCCC4=O)cc3Cl)nc3cc(C)c(F)cc32)C1 [Compound 11, (S)-1-(4-(1-((4-acetylmorpholin-2-yl)methyl)-6-fluoro-5-methyl-1H-benzo[d]imidazol-2-yl)-3-chloro-5-fluorophenyl)pyrrolidin-2-one] | 79.4
4 | CC(=O)N1CCO[C@@H](Cn2c(-c3c(F)cc(N4CCCC4=O)cc3Cl)nc3cc(Cl)c(F)cc32)C1 [Compound 12, (S)-1-(4-(1-((4-acetylmorpholin-2-yl)methyl)-5-chloro-6-fluoro-1H-benzo[d]imidazol-2-yl)-3-chloro-5-fluorophenyl)pyrrolidin-2-one] | 87.7
5 | CNC(=O)c1cc(F)c(-c2nc3nc(C)ccc3n2C[C@H]2CN(C(=O)OC)CCO2)c(F)c1 [Compound 7, Methyl (S)-2-((2-(2,6-difluoro-4-(methylcarbamoyl)phenyl)-5-methyl-1H-imidazo[4,5-b]pyridin-1-yl)methyl)morpholine-4-carboxylate] | 5840
6 | Cc1ccc2c(c1)nc(-c1c(F)cc(N3CCCC3=O)cc1Cl)n2C[C@H]1CN(C(=O)CC(F)(F)F)CCO1 [Compound 16, (S)-1-(3-chloro-5-fluoro-4-(5-methyl-1-((4-(3,3,3-trifluoropropionyl)morpholin-2-yl)methyl)-1H-benzo[d]imidazol-2-yl)phenyl)pyrrolidin-2-one] | 70.5
7 | CNC(=O)c1cc(F)c(-c2nc3cc(C)ncc3n2C[C@H]2CN(C(=O)OC)CCO2)c(F)c1 [Compound 8, Methyl (S)-2-((2-(2,6-difluoro-4-(methylcarbamoyl)phenyl)-6-methyl-3H-imidazo[4,5-c]pyridin-3-yl)methyl)morpholine-4-carboxylate] | > 10000
8 | CC(=O)N1CCO[C@@H](Cn2c(-c3c(F)cc(N4CCCC4=O)cc3F)nc3cc(C(F)F)ccc32)C1 [Compound 5, (S)-1-(4-(1-((4-acetylmorpholin-2-yl)methyl)-5-(difluoromethyl)-1H-benzo[d]imidazol-2-yl)-3,5-difluorophenyl)pyrrolidin-2-one] | 100
9 | CC(=O)N1CCO[C@@H](Cn2c(-c3c(F)cc(N4CCCC4=O)cc3F)nc3cc(Cl)cc(F)c32)C1 [Compound 13, (S)-1-(4-(1-((4-acetylmorpholin-2-yl)methyl)-5-chloro-7-fluoro-1H-benzo[d]imidazol-2-yl)-3,5-difluorophenyl)pyrrolidin-2-one] | 766
10 | CCC(=O)N1CCO[C@@H](Cn2c(-c3c(Cl)cc4c(c3F)OCC(=O)N4)nc3cc(C)ccc32)C1 [Compound 17, (S)-6-chloro-8-fluoro-7-(5-methyl-1-((4-propionylmorpholin-2-yl)methyl)-1H-benzo[d]imidazol-2-yl)-2H-benzo[b][1,4]oxazin-3(4H)-one] | 45.3

Target: T2, hP2X2/3 (Homo sapiens, UniProt P56373+Q9UBL9)
T2 construct: host or cells: 1321N1 cells
T2 sequence (Q9UBL9 1-471): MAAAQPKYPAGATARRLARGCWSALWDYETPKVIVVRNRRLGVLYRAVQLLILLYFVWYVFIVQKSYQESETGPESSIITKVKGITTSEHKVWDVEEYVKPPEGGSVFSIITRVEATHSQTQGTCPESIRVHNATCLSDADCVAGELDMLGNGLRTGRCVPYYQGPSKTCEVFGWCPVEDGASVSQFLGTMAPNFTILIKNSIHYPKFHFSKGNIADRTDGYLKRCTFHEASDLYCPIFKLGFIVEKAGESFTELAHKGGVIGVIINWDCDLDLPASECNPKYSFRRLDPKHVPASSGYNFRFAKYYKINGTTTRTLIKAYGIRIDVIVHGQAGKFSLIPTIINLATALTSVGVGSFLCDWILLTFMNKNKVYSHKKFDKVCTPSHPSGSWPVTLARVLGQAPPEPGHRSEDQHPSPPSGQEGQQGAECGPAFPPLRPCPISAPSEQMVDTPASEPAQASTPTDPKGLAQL
T2 sequence (P56373 1-397): T1 sequence (P56373 1-397)
Experiment: FLIPR calcium flux assay, antagonistic activity against hP2X2/3 receptor
Type: cell-based
Details: 1321N1/hP2X2/3 cells, agonist α,β-meATP 1000 nM
Protocol: as §1, §2

Row | SMILES | IC50 [µM]
11 | CCC(=O)N1CCO[C@@H](Cn2c(-c3c(Cl)cc4c(c3F)OCC(=O)N4)nc3cc(C)ccc32)C1 [Compound 17, (S)-6-chloro-8-fluoro-7-(5-methyl-1-((4-propionylmorpholin-2-yl)methyl)-1H-benzo[d]imidazol-2-yl)-2H-benzo[b][1,4]oxazin-3(4H)-one] | 3.5

System: not listed separately
Experiment: In vitro metabolic stability in human hepatocytes
Type: in vitro ADME
Details: human hepatocytes 1×10^6 cells/mL, 37° C., up to 120 min; read-out: Intrinsic clearance (uL/min/10^6 cells)
Protocol: The concentrations of the test compounds in the reaction system were determined by LC/MS/MS, so that the intrinsic clearance of the test compounds was calculated, and the in vitro metabolic stability in human hepatocytes was evaluated.
247.5 μL of a mixed solution of human hepatocytes at 1×10^6 cells/mL (purchased from BioreclamationIVT, Cat. No. S01205) and 2.5 μL of 100 μM test compound or positive control was added to a plate to initiate the reaction. The plate was incubated at 37° C. and 600 rpm. 20 μL of incubation system was transferred to a stop plate at 0.5 min, 5 min, 15 min, 30 min, 45 min, 60 min, 80 min, 100 min and 120 min. Then, the mixture was vortexed for 2 min to be mixed well. The stop plate was centrifuged at 4000 rpm for 20 min. 40 μL of supernatant of each compound was transferred to a 96-well sample template, after which 160 μL of pure water was added to dilute the samples.
The resulting samples were quantified from ion chromatogram. The residual rate was calculated from the peak area of the test compound or the positive control. Slope k was determined by linear regression of the […] of residual rates versus incubation time using Microsoft Excel.
Intrinsic clearance (in vitro CLint, μL/min/10^6 cells) was calculated from the slope value according to the following equation:
V=incubation volume (0.25 mL);
N=number of cells per well (0.25×10^6 cells)

Row | SMILES | hepatocyte CLint at 1 μM [µL/min/1e6 cells]
12 | CCC(=O)N1CCO[C@@H](Cn2c(-c3c(Cl)cc4c(c3F)OCC(=O)N4)nc3cc(C)ccc32)C1 [Compound 17, (S)-6-chloro-8-fluoro-7-(5-methyl-1-((4-propionylmorpholin-2-yl)methyl)-1H-benzo[d]imidazol-2-yl)-2H-benzo[b][1,4]oxazin-3(4H)-one] | 4.1

Reference: US20230250095A1, “BENZIMIDAZOLE DERIVATIVES, PREPARATION METHOD THEREFOR AND MEDICAL USE THEREOF” (TUOJIE BIOTECH(SHANGHAI) CO., LTD., priority 2020, published 2023)
